# pIC50: −log10 of the molar value. Activity calls are given as the source filed them. No cut-off for these calls is given here.
# Legend:
# [1] = Inhibition of thrombin-stimulated human platelet aggregation by measuring aggregation at 0.05 mM measured after 3 hrs by scanning electron microscopy (Rvb= 87.2 +/- 4.0%); assay type: functional; set-up: scale not given: the % may be the effect or the level left
# [2] = Inhibition of thrombin-stimulated human platelet aggregation by measuring aggregation at 0.10 mM measured after 3 hrs by scanning electron microscopy (Rvb= 87.2 +/- 4.0%); assay type: functional; set-up: scale not given: the % may be the effect or the level left; conditions: dose 0.1 mM
# [3] = Inhibition of thrombin-stimulated human platelet aggregation measured after 3 hrs by scanning electron microscopy; assay type: functional, tissue-based
# [4] = Inhibition of thrombin-stimulated human platelet aggregation by measuring aggregation at 0.50 mM measured after 1 hrs by scanning electron microscopy; assay type: functional; set-up: scale not given: the % may be the effect or the level left; conditions: dose 0.5 mM
# Platelet [5] = experiment: Cytotoxicity against human platelet assessed as extracellular LDH levels changes at 1 mM incubated for 1 hrs; assay type: cell-based; conditions: 1000 µM
# [6] = Suppression of glycoprotein IIb/IIIa activation in thrombin-stimulated human platelets by measuring activated GPIIb/IIIa at 0.01 mM measured after 3 hrs by PAC-1-FITC dye based flow cytometry (reference value: 90.1%); assay type: functional; conditions: Platelet
# [7] = Suppression of glycoprotein IIb/IIIa activation in thrombin-stimulated human platelets by measuring activated GPIIb/IIIa at 0.05 mM measured after 3 hrs by PAC-1-FITC dye based flow cytometry (reference value: 90.1%); assay type: functional; conditions: Platelet
# [8] = Suppression of P-selectin expression in thrombin-stimulated human platelets by measuring CD62P positive platelets at 0.01 mM after 3 hrs by flow cytometry analysis (reference value: 78.2%); assay type: functional; conditions: Platelet
# [9] = Suppression of P-selectin expression in thrombin-stimulated human platelets by measuring CD62P positive platelets at 1 mM after 3 hrs by flow cytometry analysis (reference value: 78.2%); assay type: functional; conditions: Platelet
# Platelet [10] = experiment: Antiplatelet activity in human platelet on collagen-coated surface assessed as shear rate pre-incubated at 0.5 mM measured after 3 hrs by fluorescent microscopy (reference value: 100 =/- 7%); assay type: functional
# Mus musculus [11] = experiment: Antithrombotic activity in calcein-labelled platelet-mediated ferric chloride-induced arterial injury thrombosis C57BL/6J mouse model assessed as thrombus weight at 50 mg/kg, po administrated twice a day measured upto 7 days (reference value: 3.3 +/- 0.3 mg); assay type: functional; conditions: time day <=7
# Mus musculus [12] = experiment: Antithrombotic activity in calcein-labelled platelet-mediated ferric chloride-induced arterial injury thrombosis C57BL/6J mouse model assessed as thrombus length at 100 mg/kg, po administrated twice a day measured upto 7 days (reference value: 4.4 +/- 0.4 mm); assay type: functional; conditions: time day <=7
# Mus musculus [13] = experiment: Antithrombotic activity in calcein-labelled platelet-mediated ferric chloride-induced arterial injury thrombosis C57BL/6J mouse model assessed as thrombus length at 300 mg/kg, po administrated twice a day measured upto 7 days (reference value: 4.4 +/- 0.4 mm); assay type: functional; conditions: time day <=7
# Platelet [14] = experiment: Antiplatelet activity in thrombin-stimulated human platelet assessed as reduction in the clot retraction preincubated at 0.5 mM with fibrinogen for 3 hrs followed by added thrombin measured after 0.5 hrs (reference value: 80.3 =/- 5.5%); assay type: functional; set-up: scale not given: the % may be the effect or the level left; conditions: time 3.5 hrs
# Mus musculus [15] = experiment: Antithrombotic activity in transient focal cerebral ischemic mouse model occlusion induced 60 mins of the right middle cerebral artery followed by reperfussion 23 hrs assessed as reduction of neurological deficits at 200 mg/kg, po twice daily for 7 days […]; assay type: functional, organism-based; conditions: time 7.0 day
# Mus musculus [16] = experiment: Antithrombotic activity in transient focal cerebral ischemic mouse model occlusion induced 60 mins of the right middle cerebral artery followed by reperfussion 23 hrs assessed as decrease in mortality rate at 200 mg/kg, po twice daily for 7 days […]; assay type: functional, organism-based; conditions: time 7.0 day
# [17] = Apparent clearance during terminal phase in Sprague-Dawley rat at 200 mg/kg, po measured by HPLC-MS/MS analysis; assay type: ADME, organism-based; conditions: in vivo
# [18] = Toxicity against C57BL/6J mouse assessed as kidney morphology at 200 mg/kg twice a day measured after 60 days; assay type: organism-based; conditions: in vivo, 1440 h, time 60 day
# [19] = Toxicity against C57BL/6J mouse assessed as effect on blood lactic acid at 200 mg/kg twice a day measured after 60 days; assay type: organism-based; conditions: in vivo, 1440 h, time 60 day
# [20] = Toxicity against diabetic C57BL/6J mouse assessed hypoglycemic activity at 200 mg/kg twice a day measured after 60 days relative to parent compound; assay type: organism-based; conditions: in vivo, 1440 h, time 60 day
# [21] = Toxicity in calcein-labelled platelet-mediated ferric chloride-induced arterial injury thrombosis po dosed C57BL/6J mouse model assessed as change in thrombin time treated twice a day measured upto 7 days; assay type: organism-based; conditions: in vivo, 168 h, time <=7 day
# [22] = Toxicity in calcein-labelled platelet-mediated ferric chloride-induced arterial injury thrombosis po dosed C57BL/6J mouse model assessed as change in coagulation factor II treated twice a day measured upto 7 days; assay type: organism-based; conditions: in vivo, 50 mg/kg, 168 h, time <=7 day
# Mus musculus [23] = experiment: Antithrombotic activity in collagen-epinephrine induced pulmonary thromboembolism mouse model assessed as protection rate at 200 mg/kg, ig twice a day for 7 days followed by administered collagen-epinephrine relative to control; assay type: functional; conditions: time 7 day
# Mus musculus [24] = experiment: Antithrombotic activity in calcein-labelled platelet-mediated ferric chloride-induced arterial injury thrombosis C57BL/6J mouse model assessed as average time to occlusive thrombosis at 50 mg/kg, po administrated twice a day measured upto 7 days (reference value: 7.9 +/- 0.7 min); assay type: functional; conditions: time day <=7
# Mus musculus [25] = experiment: Antithrombotic activity in calcein-labelled platelet-mediated ferric chloride-induced arterial injury thrombosis C57BL/6J mouse model assessed as average time to occlusive thrombosis at 200 mg/kg, po administrated twice a day measured upto 7 days (reference value: 7.9 +/- 0.7 min); assay type: functional; conditions: time day <=7
# Platelet [26] = experiment: Inhibition of thrombin-stimulated human platelet aggregation measured after 3 hrs by scanning electron microscopy with 0.01 to 1 U/ml varying concentration of thrombin by lumi-aggregometer; assay type: functional, tissue-based
# [27] = Toxicity in calcein-labelled platelet-mediated ferric chloride-induced arterial injury thrombosis po dosed C57BL/6J mouse model assessed as change in coagulation factor V treated twice a day measured upto 7 days; assay type: organism-based; conditions: in vivo, 168 h, time <=7 day
# [28] = Toxicity in calcein-labelled platelet-mediated ferric chloride-induced arterial injury thrombosis po dosed C57BL/6J mouse model assessed as change in coagulation factor VII to XII treated twice a day measured upto 7 days; assay type: organism-based; conditions: in vivo, 168 h, time <=7 day
# Mus musculus [29] = experiment: Antithrombotic activity in transient focal cerebral ischemic mouse model occlusion induced 60 mins of the right middle cerebral artery followed by reperfussion 23 hrs assessed as improve in damaged neural function at 200 mg/kg, po twice daily for 7 days; assay type: functional, organism-based; conditions: time 7.0 day
# [30] = Toxicity in C57BL/6J mouse assessed as change in chloride level at 200 mg/kg twice daily for 60 days relative to control; assay type: organism-based; conditions: in vivo, 1440 h, time 60 day
# [31] = Toxicity in C57BL/6J mouse assessed as change in calcium level at 200 mg/kg twice daily for 60 days relative to control; assay type: organism-based; conditions: in vivo, 1440 h, time 60 day
# [32] = Toxicity in C57BL/6J mouse assessed as change in mean platelet volume at 200 mg/kg twice daily for 60 days relative to control; assay type: organism-based; conditions: in vivo, 1440 h, time 60 day
# [33] = Toxicity in C57BL/6J mouse assessed as change in thrombo-cytocrit at 200 mg/kg twice daily for 60 days relative to control; assay type: organism-based; conditions: in vivo, 1440 h, time 60 day
# [34] = Toxicity in C57BL/6J mouse assessed as change in platelet ratio at 200 mg/kg twice daily for 60 days relative to control; assay type: organism-based; conditions: in vivo, 1440 h, time 60 day
smiles,measurement,setting,value
CN(C)C(=N)NC(=N)NS(=O)(=O)C(F)(F)F,Activity,[1],62.2%
same,Activity,[2],44.2%
same,pIC50,[3],3.82
same,Activity,[4],60%
same,Activity,Platelet [5],Non-Toxic
same,"level, % of control at 10 µM",[6],84.2%
same,"level, % of control at 50 µM",[7],74.3%
same,"level, % of control at 10 µM",[8],72.8%
same,"level, % of control at 1000 µM",[9],46.6%
same,Activity,Platelet [10],37%
same,Activity,Mus musculus [11],2.7 mg
same,Activity,Mus musculus [12],2.8 mm
same,Activity,Mus musculus [13],1.4 mm
same,Activity,Platelet [14],28.4%
same,Activity,Mus musculus [15],Active
same,Activity,Mus musculus [16],Active
same,CLz/F,[17],16.6 mL/min/kg
same,Activity,[18],Non-Toxic
same,Activity,[19],Non-Toxic
same,Activity,[20],Non-Toxic
same,Activity,[21],Non-Toxic
same,Activity,[22],Non-Toxic
same,Activity,Mus musculus [23],70%
same,Time,Mus musculus [24],10.1 min
same,Time,Mus musculus [25],21.2 min
same,inhibition,Platelet [26],Active
same,Activity,[27],Non-Toxic
same,Activity,[28],Non-Toxic
same,Activity,Mus musculus [29],Active
same,Activity,[30],Non-Toxic
same,Activity,[31],Non-Toxic
same,Activity,[32],Non-Toxic
same,Activity,[33],Non-Toxic
same,Activity,[34],Non-Toxic
